Measurements reported in the NIST ThermoML archive (doi:10.1016/j.jct.2010.08.016).
Numbers after ± are expanded uncertainties.

Experiments:
[1] = refractive index (Na D-line) (dimensionless); xn = mol fraction of the nth substance listed; conditions: 101 kPa, Liquid, Standard Abbe refractometry
[2] = xn = mol fraction of the nth substance listed; conditions: 101 kPa, Liquid; for electrical conductivity: Alternating current cell with electrodes; for mass density: Vibrating tube method

NC(CO)(CO)CO [2-amino-2-(hydroxymethyl)-1,3-propanediol] + O
Conditions	electrical conductivity, [2] [S/m]	mass density, [2] [kg/m3]	refractive index, [1]
293.15 K, x1 = 0.01	0.0158 ± 0.00032	1022.2 ± 0.8	1.34226 ± 0.00031
293.15 K, x1 = 0.02	0.0179 ± 0.00036	1036.6 ± 0.8	1.35089 ± 0.00031
293.15 K, x1 = 0.03	0.0189 ± 0.00038	1049.4 ± 0.8	1.35884 ± 0.00031
293.15 K, x1 = 0.04	0.0193 ± 0.00039	1056.4 ± 0.8	1.37118 ± 0.00031
293.15 K, x1 = 0.05	0.0205 ± 0.00041	1073.8 ± 0.8	1.37635 ± 0.00031
293.15 K, x1 = 0.06	0.0205 ± 0.00041	1079.9 ± 0.8	1.3797 ± 0.00031
293.15 K, x1 = 0.07	0.018 ± 0.00036	1090 ± 0.8	1.38587 ± 0.00031
298.15 K, x1 = 0.01	–	–	1.34173 ± 0.00031
298.15 K, x1 = 0.02	–	–	1.35029 ± 0.00031
298.15 K, x1 = 0.03	–	–	1.35819 ± 0.00031
298.15 K, x1 = 0.04	–	–	1.37048 ± 0.00031
298.15 K, x1 = 0.05	–	–	1.37565 ± 0.00031
298.15 K, x1 = 0.06	–	–	1.37896 ± 0.00031
298.15 K, x1 = 0.07	–	–	1.38509 ± 0.00031
303.15 K, x1 = 0.01	0.0195 ± 0.00039	1019.5 ± 0.8	1.34111 ± 0.00031
303.15 K, x1 = 0.02	0.0229 ± 0.00046	1033.6 ± 0.8	1.34961 ± 0.00031
303.15 K, x1 = 0.03	0.0247 ± 0.00049	1046.2 ± 0.8	1.35746 ± 0.00031
303.15 K, x1 = 0.04	0.0253 ± 0.00051	1053.3 ± 0.8	1.3697 ± 0.00031
303.15 K, x1 = 0.05	0.0271 ± 0.00054	1070.3 ± 0.8	1.37485 ± 0.00031
303.15 K, x1 = 0.06	0.0271 ± 0.00054	1076.2 ± 0.8	1.37816 ± 0.00031
303.15 K, x1 = 0.07	0.0235 ± 0.00047	1086.3 ± 0.8	1.38425 ± 0.00031
308.15 K, x1 = 0.01	–	–	1.34042 ± 0.00031
308.15 K, x1 = 0.02	–	–	1.34889 ± 0.00031
308.15 K, x1 = 0.03	–	–	1.35667 ± 0.00031
308.15 K, x1 = 0.04	–	–	1.36888 ± 0.00031
308.15 K, x1 = 0.05	–	–	1.37406 ± 0.00031
308.15 K, x1 = 0.06	–	–	1.37728 ± 0.00031
308.15 K, x1 = 0.07	–	–	1.38334 ± 0.00031
313.15 K, x1 = 0.01	0.0241 ± 0.00048	1016 ± 0.8	1.33972 ± 0.00031
313.15 K, x1 = 0.02	0.0287 ± 0.00057	1029.9 ± 0.8	1.34821 ± 0.00031
313.15 K, x1 = 0.03	0.031 ± 0.00062	1042.4 ± 0.8	1.35596 ± 0.00031
313.15 K, x1 = 0.04	0.0318 ± 0.00064	1049.3 ± 0.8	1.36815 ± 0.00031
313.15 K, x1 = 0.05	0.0341 ± 0.00068	1066.1 ± 0.8	1.37347 ± 0.00031
313.15 K, x1 = 0.06	0.0341 ± 0.00068	1071.8 ± 0.8	1.37673 ± 0.00031
313.15 K, x1 = 0.07	0.03 ± 0.0006	1081.8 ± 0.8	1.38271 ± 0.00031
318.15 K, x1 = 0.01	–	–	1.33899 ± 0.00031
318.15 K, x1 = 0.02	–	–	1.34742 ± 0.00031
318.15 K, x1 = 0.03	–	–	1.3552 ± 0.00031
318.15 K, x1 = 0.04	–	–	1.36739 ± 0.00031
318.15 K, x1 = 0.05	–	–	1.37247 ± 0.00031
318.15 K, x1 = 0.06	–	–	1.37581 ± 0.00031
318.15 K, x1 = 0.07	–	–	1.38182 ± 0.00031
323.15 K, x1 = 0.01	0.0287 ± 0.00057	1011.6 ± 0.8	1.3381 ± 0.00031
323.15 K, x1 = 0.02	0.0346 ± 0.00069	1025.5 ± 0.8	1.34668 ± 0.00031
323.15 K, x1 = 0.03	0.0373 ± 0.00075	1037.8 ± 0.8	1.35447 ± 0.00031
323.15 K, x1 = 0.04	0.0385 ± 0.00077	1044.7 ± 0.8	1.36673 ± 0.00031
323.15 K, x1 = 0.05	0.0411 ± 0.00082	1061.3 ± 0.8	1.37176 ± 0.00031
323.15 K, x1 = 0.06	0.0411 ± 0.00082	1067 ± 0.8	1.37507 ± 0.00031
323.15 K, x1 = 0.07	0.0367 ± 0.00073	1076.9 ± 0.8	1.38124 ± 0.00031
328.15 K, x1 = 0.01	–	–	1.33723 ± 0.00031
328.15 K, x1 = 0.02	–	–	1.34603 ± 0.00031
328.15 K, x1 = 0.03	–	–	1.35389 ± 0.00031
328.15 K, x1 = 0.04	–	–	1.36626 ± 0.00031
328.15 K, x1 = 0.05	–	–	1.37115 ± 0.00031
328.15 K, x1 = 0.06	–	–	1.37453 ± 0.00031
328.15 K, x1 = 0.07	–	–	1.38089 ± 0.00031
333.15 K, x1 = 0.01	0.0333 ± 0.00067	1006 ± 0.8	–
333.15 K, x1 = 0.02	0.0403 ± 0.00081	1020 ± 0.8	–
333.15 K, x1 = 0.03	0.0435 ± 0.00087	1032.7 ± 0.8	–
333.15 K, x1 = 0.04	0.0452 ± 0.0009	1039.6 ± 0.8	–
333.15 K, x1 = 0.05	0.0482 ± 0.00096	1056 ± 0.8	–
333.15 K, x1 = 0.06	0.0482 ± 0.00096	1061.7 ± 0.8	–
333.15 K, x1 = 0.07	0.0435 ± 0.00087	1071.4 ± 0.8	–
343.15 K, x1 = 0.01	0.0378 ± 0.00076	998.9 ± 0.8	–
343.15 K, x1 = 0.02	0.046 ± 0.00092	1013.2 ± 0.8	–
343.15 K, x1 = 0.03	0.0497 ± 0.00099	1027 ± 0.8	–
343.15 K, x1 = 0.04	0.0518 ± 0.001	1033.9 ± 0.8	–
343.15 K, x1 = 0.05	0.0552 ± 0.0011	1050.2 ± 0.8	–
343.15 K, x1 = 0.06	0.0552 ± 0.0011	1055.9 ± 0.8	–
343.15 K, x1 = 0.07	0.0503 ± 0.001	1065.6 ± 0.8	–
353.15 K, x1 = 0.01	0.0423 ± 0.00085	989.9 ± 0.8	–
353.15 K, x1 = 0.02	0.0514 ± 0.001	1004.9 ± 0.8	–
353.15 K, x1 = 0.03	0.0555 ± 0.0011	1020.8 ± 0.8	–
353.15 K, x1 = 0.04	0.0579 ± 0.0012	1027.6 ± 0.8	–
353.15 K, x1 = 0.05	0.0619 ± 0.0012	1044 ± 0.8	–
353.15 K, x1 = 0.06	0.0619 ± 0.0012	1049.5 ± 0.8	–
353.15 K, x1 = 0.07	0.0567 ± 0.0011	1059.2 ± 0.8	–
